Experimental data as given in patent US20240182423A1, “4-AMINOQUINOLINES FOR TREATMENT OF MULTIDRUG RESISTANT MALARIA” (United States Government as represented by the Department …, priority 2022, published 2024).
Like-named read-outs stand apart in the source and are kept apart here.

Assays:
[1] = test system: drug sensitive D6 clone of P. falciparum; assay: SYBR Green I fluorescence-based antiplasmodial assay, D6; format: cell-based, Plasmodium falciparum; conditions: P. falciparum D6, 72 hours
Protocol: (§1) Laboratory strains of P. falciparum were cultured in human erythrocytes by standard methods (Trager, W.; Jensen, J. B. Human malaria parasites in continuous culture. Science 1976, 193 (4254), 673-675. DOI: 10.1126/science.781840 from NLM Medline). The parasites were grown in culture medium with fresh human erythrocytes maintained at 2% hematocrit at 37° C. in low-oxygen conditions (5% 02, 5% CO2, 90% N2). The culture medium used was RPMI-1640 with 25 mg/L gentamicin sulfate, 45 mg/L Albumax II, 10 mM glucose, and 25 mM HEPES buffer (Smilkstein et al., Simple and inexpensive fluorescence-based technique for high-throughput antimalarial drug screening. Antimicrob Agents Chemother 2004, 48 (5), 1803-1806. DOI: 10.1128/aac.48.5.1803-1806.2004). Cultures were maintained at less than 10% parasitemia by transfer of infected cells to fresh erythrocytes and culture medium every 3 or 4 days. […]
(§2) In vitro antimalarial activity was measured using the SYBR Green I fluorescence-based assay. […] Experiments were set up in quadruplicate in 96-well plates with a 100 μL total volume per well with 2% hematocrit, 0.2% parasitemia, and drug dilutions between 0.25 and 250 nM in complete culture medium described above. The plates were incubated at 37° C. in low-oxygen conditions described previously for 72 hours, at which point 100 μL of fluorescent dye-detergent mixture (0.2 μL SYBR Green I: 1 mL lysing buffer) was added and the plates incubated in the dark at room temperature for one hour. After incubation with the fluorescent dye, a 96-well plate reader with excitation wavelength set at 497 nm and emission at 520 nm, was used to measure fluorescence of each well.
(§3) Each of the ADC derivatives was tested for antiplasmodial activity against the drug sensitive D6 clone of P. falciparum as well as one or more of the following multidrug resistant strains: Dd2 or 7G8. The method used for antiplasmodial testing is known as the SyBr Green assay and it was described by us in 2004 (Smilkstein et al., Antimicrob Agents Chemother 2004, 48 (5), 1803-1806).

[2] = test system: multi-drug resistant (Dd2) P. falciparum; assay: SYBR Green I fluorescence-based antiplasmodial assay, Dd2; format: cell-based, Plasmodium falciparum; conditions: for IC50: P. falciparum Dd2, 72 hours; for cross resistance, Dd2 vs D6: ratio of IC50 in Dd2 and D6 strains
Protocol: as §1, §2, §3

[3] = HepG2 cytotoxicity assay (resazurin); format: cell-based; conditions: human, HepG2, 24 h drug then 24 h drug-free, read-out: CC50 v HepG2
Protocol: Final compounds were assessed for mammalian cytotoxicity using an immortalized human liver carcinoma cell line (HepG2) using previously described methods.^1 In short, final compounds were prepared in DMSO as 10 mM stock solutions. […] To 96-well flat-bottomed tissue culture plates, HepG2 cells were added at 2×10 4 density with an additional 160 μL of complete culture media per well and were incubated overnight at 37° C. to allow for adherence. Compound stocks aliquots were applied as 40 μL solutions in complete media to each well in a serial dilution series that ranged from […] as duplicates. A 10 mM DMSO stock of mefloquine was used as a positive control. […] 20 μL of resazurin (Alamar Blue) in PBS buffer was added to each well to a final concentration of 10 μM, and the plates were incubated for 3 h. Fluorescence was measured at 560 nm excitation and 590 nm emission bands using a Spectramax iD3 plate reader. Fluorescence output values were normalized to the untreated control wells and plotted against the logarithm of drug concentration.

[4] = Metabolic stability in pooled murine liver microsomes; format: in vitro ADME; conditions: for half-life: mouse
Protocol: (§4) In vivo efficiency: ADCs antiplasmodial efficiency (ED50, ED90) assessed in murine malaria model against P. yoelii (Py). Metabolic stability: ADCs were assessed for metabolic stability (t1/2, Clint) in pooled murine liver microsomes. Referring to Table 1, ND=not detected.

Plasmodium yoelii = assay: In vivo efficacy against murine malaria, modified 4-day test; conditions: for ED50 (mg/kg/d) vs Py / ED90 (mg/kg/d) vs Py: P. yoelii in mice, oral once daily for 4 days, PEG-400
Protocol: as §4
Selected ADC derivatives were also tested in vivo in mice using the standard 4-day test protocol as described previously. For this work the rodent malaria parasite Plasmodium yoelii was used and the mice were CF1 female. Briefly, animals were inoculated with 35,000 parasitized red blood cells (obtained from a donor animal) on Day 0 of the experiment. Beginning on the next day (Day 1) and again on the 3 succeeding days (Days 2, 3, and 4) the animals received oral doses of the test agent dissolved in the dosing vehicle PEG-400. On Day 5 a blood sample was taken from the tail vein and examined microscopically for the presence of parasites using Giemsa stained and methanol fixed blood smears.
The in vivo efficacy of selected ADC derivatives was determined against blood-stage Plasmodium yoelii using a modified 4-day test. Female mice (Charles River Laboratories) were infected intravenously with 35,000 P. yoelii parasitized erythrocytes from a donor animal (Kenya MR4 MRA-428). […] Five days after inoculation, percent parasitemia was calculated by examination of Giemsa-stained blood smears.

[5] = Pharmacokinetic study in mice; format: in vivo
[6] = Plasmodium falciparum, D6, 72 h
[7] = Plasmodium falciparum, DD2, 72 h
[8] = mouse, plasma, PO 5 mg/kg in PEG400, male CD1 mice
[9] = mouse, plasma, PO 5 mg/kg in PEG400, male CD1 mice, non-compartmental

IC50 [1, 6] [nM]	IC50 [2, 7] [nM]	CIint [4] [mL/min/kg]	half-life [4] [min]	Compound	CC50 at 24 h ([3]; HepG2 cells) [µM]	further results
39.2	84.4	–	–	Clc1ccc2c(Nc3ccc(N4CCN(C5CC5)CC4)cc3)ccnc2c1 [ADC-013, 7-chloro-N-(4-(4-cyclopropylpiperazin-1-yl)phenyl)quinolin-4-amine]	> 200	–
10.2	75.2	–	–	Clc1ccc2c(Nc3ccc(C4CCNCC4)cc3)ccnc2c1 [ADC-015, 7-chloro-N-(4-(piperidin-4-yl)phenyl)quinolin-4-amine]	58	–
9.25	19.3	78.0	70	CCCN1CCC(c2ccc(Nc3ccnc4cc(Cl)ccc34)cc2)CC1 [ADC-026, 7-chloro-N-(4-(1-propylpiperidin-4-yl)phenyl)quinolin-4-amine]	> 200	–
4.56	13.4	496.7	11	CCN1CCC(c2ccc(Nc3ccnc4cc(Cl)ccc34)cc2)CC1 [ADC-020, 7-chloro-N-(4-(1-ethylpiperidin-4-yl)phenyl)quinolin-4-amine]	111	ED50 (mg/kg/d) vs Py (Plasmodium yoelii): 1.8 mg/kg/day; ED90 (mg/kg/d) vs Py (Plasmodium yoelii): 13.4 mg/kg/day
–	–	–	–	CC(C)(C)OC(=O)N1CCN(c2ccc(Nc3ccnc4cc(Cl)ccc34)cc2)CC1 [ADC-012, tert-butyl 4-(4-((7-chloroquinolin-4-yl)amino)phenyl)piperazine-1-carboxylate]	> 200	–
10.3	19.2	–	–	CCN1CCN(c2ccc(Nc3ccnc4cc(Br)ccc34)cc2)CC1 [ADC-025, 7-bromo-N-(4-(4-ethylpiperazin-1-yl)phenyl)quinolin-4-amine]	48	–
4.94	11.6	123.6	44.1	CC(C)N1CCC(c2ccc(Nc3ccnc4cc(Cl)ccc34)cc2)CC1 [ADC-021, 7-chloro-N-(4-(1-isopropylpiperidin-4-yl)phenyl)quinolin-4-amine]	> 200	ED50 (mg/kg/d) vs Py (Plasmodium yoelii): 1.1 mg/kg/day; ED90 (mg/kg/d) vs Py (Plasmodium yoelii): 4.1 mg/kg/day; ED50 (Plasmodium yoelii; P. yoelii, CF1 female mice, 4-day test, oral in PEG-400): 1.1 mg/kg/day
~13	~13	2936	1.86	CCN1CCN(c2ccc(Nc3ccnc4cc(Cl)ccc34)cc2)CC1 [ADC-009, 7-chloro-N-(4-(4-ethylpiperazin-1-yl)phenyl)quinolin-4-amine]	> 200	IC50 [1]: 13.2 nM; IC50 [2]: 12.7 nM; ED50 (mg/kg/d) vs Py (Plasmodium yoelii): 1.5 mg/kg/day; ED90 (mg/kg/d) vs Py (Plasmodium yoelii): 8.4 mg/kg/day
–	–	–	–	CCN1CCN(c2ccc(Nc3ccnc4cc(C(F)(F)F)ccc34)cc2)CC1 [ADC-024, N-(4-(4-ethylpiperazin-1-yl)phenyl)-7-(trifluoromethyl)quinolin-4-amine]	> 200	–
5.18	9.17	0.00	–	CC(C)(C)N1CCN(c2ccc(Nc3ccnc4cc(Cl)ccc34)cc2)CC1 [ADC-017, N-(4-(4-(tert-butyl)piperazin-1-yl)phenyl)-7-chloroquinolin-4-amine]	> 200	ED50 (mg/kg/d) vs Py (Plasmodium yoelii): 4.0 mg/kg/day; ED90 (mg/kg/d) vs Py (Plasmodium yoelii): 7.6 mg/kg/day; T1/2 (min) [4]: ∞
21.8	65.8	–	–	Clc1ccc2c(Nc3ccc(N4CCNCC4)cc3)ccnc2c1 [ADC-011, 7-chloro-N-(4-(piperazin-1-yl)phenyl)quinolin-4-amine]	54	–
13.8	19	98.3	55.5	CCC(C)N1CCC(c2ccc(Nc3ccnc4cc(Cl)ccc34)cc2)CC1 (stereo not shown) [ADC-029, N-(4-(1-(sec-butyl)piperidin-4-yl)phenyl)-7-chloroquinolin-4-amine]	> 200	–
7.9	17.4	–	–	CC(C)CN1CCC(c2ccc(Nc3ccnc4cc(Cl)ccc34)cc2)CC1 [ADC-028, 7-chloro-N-(4-(1-isobutylpiperidin-4-yl)phenyl)quinolin-4-amine]	–	CC50 at 24 h [3]: > 200 µM; MRTIast ([5]; PO 5 mg/kg in PEG400, male CD1 mice): 19.3 h; AUC(0-inf) [5, 8]: 3160 ng·h/mL; AUC(0-t) [5, 8]: 2360 ng·h/mL; MRT inf [5, 8]: 35.6 h; Cmax [5, 9]: 67.7 ng/mL; Tmax [5, 9]: 1 h; half-life ([5]; mouse, plasma, PO 5 mg/kg, male CD1 mice, Rsq_adjusted 0.829 (<0.9: might not be accurately estimated)): 1510 min
9.79	17.8	391.9	13.9	CC(C)CN1CCN(c2ccc(Nc3ccnc4cc(Cl)ccc34)cc2)CC1 [ADC-030, 7-chloro-N-(4-(4-isobutylpiperazin-1-yl)phenyl)quinolin-4-amine]	> 200	–
9.03	20.4	129.7	42.1	CCCCN1CCC(c2ccc(Nc3ccnc4cc(Cl)ccc34)cc2)CC1 [ADC-027, N-(4-(1-butylpiperidin-4-yl)phenyl)-7-chloroquinolin-4-amine]	> 200	–
43.3	110	–	–	FC(F)(F)c1ccc(N2CCN(c3ccc(Nc4ccnc5cc(Cl)ccc45)cc3)CC2)cc1 [ADC-018, 7-chloro-N-(4-(4-(4-(trifluoromethyl)phenyl)piperazin-1-yl)phenyl)quinolin-4-amine]	> 200	–

Compound	IC50 [1, 6] [nM]	IC50 [2, 7] [nM]	CIint [4] [mL/min/kg]	half-life [4] [min]	CC50 at 24 h ([3]; HepG2 cells) [µM]	further results
Clc1ccc2c(Nc3ccc(N4CCN(Cc5ccccc5)CC4)cc3)ccnc2c1 [ADC-008, N-(4-(4-benzylpiperazin-1-yl)phenyl)-7-chloroquinolin-4-amine]	16.1	15.9	391.9	13.9	> 200	cross resistance, Dd2 vs D6 [2]: Equipotency
CN1CCN(c2ccc(Nc3ccnc4cc(Cl)ccc34)cc2)CC1 [ADC-010, 7-chloro-N-(4-(4-methylpiperazin-1-yl)phenyl)quinolin-4-amine]	13.3	14	3784	1.44	185	cross resistance, Dd2 vs D6 [2]: Equipotency
CCN1CCN(c2ccc(Nc3ccnc4ccc(Cl)cc34)cc2)CC1 [ADC-014, 6-chloro-N-(4-(4-ethylpiperazin-1-yl)phenyl)quinolin-4-amine]	69.8	66	–	–	> 200	cross resistance, Dd2 vs D6 [2]: Equipotency
